These results are taken from patent US20090281047A1, “Compositions And Methods For Immunotherapy” (priority 2008, published 2009).

One test relates to breast cancer. The test is described as follows: Treatment of breast cancer patients (Example IX). In kind it is in vivo, human. The source says:
Forty-three of the patients in the study of Example VIII suffered from breast cancer. These forty-three were divided into four groups. One group of 7 was given the glycome solution of Example II; a group of five was given the glycome solution of Example II in combination with chemotherapy; a group of thirteen was given the glycome solution of Example II in combination with chemotherapy and Poly-MVA® (AMARC Enterprises, Inc., Spring Valley, Calif.) (blend of Palladium and alpha-lipoic Acid, Vitamins B1, B2 and B12, Formylmethionine, Acetyl Cystiene, and trace amounts of Molybdinum, Rhodium, and Ruthenium); and the remaining eighteen were given a combination of the glycome solution of Example II and Poly-MVA® (AMARC Enterprises, Inc., Spring Valley, Calif.) without chemotherapy. Patients receiving the glycome solution were given a solution containing three grams of the powder isolated in Example I a day intravenously for five days then six capsules containing a total of 3 g/day of para-hydroxyl-benzaldehyde-O-B-D-allopyranoside formulated according to Example IV and two capsules containing the formulation of Example V orally for two days, repeating for four weeks. They were then given six capsules containing a total of 3 g/day of para-hydroxyl-benzaldehyde-O-B-D-allopyranoside formulated according to Example IV and two capsules containing the formulation of Example V orally per day until they entered remission.

For test [1], the system named is varying malignancies including neuroendocrine cancer, nasal adenocarcinoma, brain stem tumor, thymoma, and histiocytoma. The test is described as follows: Treatment of dogs with varying malignancies (Example X). The settings on record: eight dogs; IV five days a week for three weeks, then 1 to 2 grams methacrylate coated para-hydroxyl-benzaldehyde-O-B-D-allopyranoside in food; some also acupuncture/alkaline water. In kind it is in vivo, dog. The procedure:
Eight dogs weighing between 60 and 80 pounds with varying malignancies including neuroendocrine cancer, nasal adenocarcinoma, brain stem tumor, thymoma, and histiocytoma were treated with 6 cc of the DMSO solution of Example II diluted in 200 cc saline administered intravenously five days a week for three weeks. The dogs were then given 1 to 2 grams of methacrylate coated para-hydroxyl-benzaldehyde-O-B-D-allopyranoside in their food seven days a week until they entered remission. Six of the dogs also received acupuncture and one received acupuncture and alkaline water.

The next test relates to candadiasis. The test is described as follows: Treatment of candadiasis (Example XIV). In kind it is in vivo, human. The settings on record: 25 individuals; 200 mg in 1 liter alkaline water pH 11 twice daily for three months. The procedure:
25 individuals with candadiasis were administered a solution comprising, 1 liter of Alkaline water prepared as described in Example XI and diluted with non-chlorinated drinking water to a pH of 11 mixed with 200 mg of columbianitin extracted from Lomatium Disectum, twice daily for three months.

In test [2] the test system is Methicillin Resistant Staphylococcus aureus (MRSA). The test can be described thus: Treatment of MRSA (Example XV). The test is classed as in vivo, human. The note with it: three individuals; 200 mg in 1 liter alkaline water pH 11 twice daily for three months. The procedure:
Three individuals suffering from MRSA were administered a solution comprising, 1 liter of Alkaline water prepared as described in Example XI and diluted with non-chlorinated drinking water to a pH of 11 mixed with 200 mg of columbianitin extracted from Lomatium Disectum, twice daily for three months.

For another test, the system named is Epstein Barr virus. The test can be described thus: Treatment of Epstein Barr (Example XIII). The note with it: thirty five individuals; 200 mg in 1 liter alkaline water pH 11 twice daily for three months. In kind it is in vivo, human. As to the method:
Thirty five individuals with Epstein Barr virus were administered a solution comprising, 1 liter of Alkaline water prepared as described in Example XI and diluted with non-chlorinated drinking water to a pH of 11 mixed with 200 mg of columbianitin extracted from Lomatium Disectum, twice daily for three months.

A further test relates to Lyme Disease. The test can be described thus: Treatment of Lyme Disease (Example XII). The test is classed as in vivo, human. The settings on record: five individuals; 200 mg in 1 liter alkaline water pH 11 twice daily for three months. The procedure:
Five individuals positive for Lyme Disease were administered a solution comprising 1 liter of Alkaline water prepared as described in Example XI and diluted with non-chlorinated drinking water to a pH of 11 mixed with 200 mg of columbianitin extracted from Lomatium Disectum twice daily for three months.

`O=Cc1ccc(O[C@@H]2O[C@H](CO)[C@@H](O)[C@@H](O)[C@H]2O)cc1` [para-hydroxyl-benzaldehyde-O-B-D-allopyranoside]: the “breast cancer patients survived for at least two years, overall” value with breast cancer (all forty-three breast cancer patients, all four treatment groups) is 79%. For the same molecule, the “breast cancer patients survived” value in the test on breast cancer (group of eighteen, combination with Poly-MVA without chemotherapy) is reported as “seventy-eight”; with breast cancer (group of five, combination with chemotherapy), 100%. Moreover, the tumor response result in test [1] was “significant reduction or elimination of the tumor”.
As for `CC(C)(O)[C@@H]1Cc2c(ccc3ccc(=O)oc23)O1` [columbianitin], in the test on candadiasis, the “skin infections at the end of three months” value is “resolved” and the “vaginal infections at the end of three months” value is listed as “remained the same”. The “clinical outcome at the end of three months” value in test [2] is recorded as “all three individuals improved considerably”. In addition, in the test on Epstein Barr virus, the “Epstein Barr virus test at the end of three months” value is listed as “all thirty-five individuals tested negative”. In addition, in the test on Lyme Disease, the “Lyme disease test at the end of three months” value is reported as “all five individuals tested negative”.
